In assay [1] the target is T1, AChE (acetylcholinesterase) (Electrophorus electricus, UniProt O42275).
T1 construct: purchased Sigma Aldrich S.r.l., Milan, Italy Type-VI-S (catalogue number not given)
As to the kind of experiment: AChE inhibition, colorimetric cholinesterase assay. It is filed as biochemical, electric eel. To be noted: mean ± S.D., n = 3.

In assay [2] the target is T2, BChE (butyrylcholinesterase) (Equus caballus, UniProt P81908).
T2 construct: horse serum butyrylcholinesterase, EC 3.1.1.8, Sigma Aldrich S.r.L; purchased Sigma Aldrich S.r.L; host or cells: horse serum
As to the kind of experiment: BChE inhibition, colorimetric cholinesterase assay. It is filed as biochemical, horse. To be noted: mean ± S.D., n = 3.

Assay [3] in a line: Ferric reducing antioxidant power (FRAP). Particulars: mean ± S.D., n = 3. As for the experimental part:
For the ferric reducing antioxidant power (FRAP) activity assay, sample solution was added to premixed FRAP reagent (2 mL) containing acetate buffer (0.3 M, pH 3.6), 2,4,6-tris(2-pyridyl)-S-triazine (TPTZ) (10 mM) in 40 mM HCl and ferric chloride (20 mM) in a ratio of 10:1:1 (v/v/v). Then, the sample absorbance was read at 593 nm after a 30 min incubation at room temperature. FRAP activity was expressed as IC50 values.

Assay [4] is described as follows: Cupric reducing antioxidant capacity (CUPRAC). Particulars: mean ± S.D., n = 3. On the procedure: For the cupric ion reducing activity (CUPRAC) activity assay, sample solution was added to premixed reaction mixture containing CuCl2 (1 mL, 10 mM), neocuproine (1 mL, 7.5 mM) and NH4Ac buffer (1 mL, 1 M, pH 7.0). Similarly, a blank was prepared by adding sample solution (0.5 mL) to premixed reaction mixture […] without CuCl2. Then, the sample and blank absorbances were read at 450 nm after a 30 min incubation at room temperature. The absorbance of the blank was subtracted from that of the sample. CUPRAC activity was expressed as IC50 values.

In assay [5] the test system is syntaxin 1b (Stx 1b). As to the kind of experiment: Untargeted proteomic analysis of cortexes, Stx 1b. Also on record: species or system rat. To be noted: CBD 1000 nM, CBG 1 nM. As for the experimental part: (§1) Sprague–Dawley rats (200–250 g) were sacrificed by CO2 inhalation (Italian Health Ministry authorization N. F4738.N.XTQ, delivered on 11th November 2018) and isolated prefrontal cortex specimens were immediately explanted and incubated in thermostatic shaking bath at 37 °C for 1 h (incubation period), in Krebs–Ringer buffer at the following K^+ concentrations:
(§2) Cortexes were stimulated with CBD (1000 nM) and CBD (1 nM). Afterwards, specimens were homogenized in perchloric acid solution (0.05 M) for the extraction and quantification of nitrites, via the aforementioned colorimetric Griess assay, and serotonin (5-HT), 5-hydroxyindoleacetic (5HIIA),3-hydroxykinurenine (3-HK) and kinurenic acid (KA) (ng/mg wet tissue) via high performance liquid chromatography analysis. Additionally, an untargeted proteomic analysis was carried out on the cortex homogenate. The analytical protocols for 5-HT, 5HIIA, 3-HK, KA and protein level determinations are described below. […]
(§3) After protein quantification, a volume corresponding to 50 μg of proteins was loaded onto a Nanosep 10-kDa-cutoff filter (Pall Corporation, Michigan, USA) and digested according to the protocol we routinely use in our laboratory, adapted from Distler et al. Briefly, the sample was washed twice with 200 μL urea buffer (8M urea, 100 mM Tris pH 8.5 in milliQ water) to remove the detergents present in the lysis buffer. […]

Assay [6] concerns calcium/calmodulin-dependent protein kinase type II subunit alpha (CAMK2A). As to the kind of experiment: Untargeted proteomic analysis of cortexes, CAMK2A. To be noted: CBD 1000 nM, CBG 1 nM. Also on record: species or system rat. On the procedure: as §1, §2, §3

Each structure is given as a SMILES string.

T1 sequence (O42275 24-633): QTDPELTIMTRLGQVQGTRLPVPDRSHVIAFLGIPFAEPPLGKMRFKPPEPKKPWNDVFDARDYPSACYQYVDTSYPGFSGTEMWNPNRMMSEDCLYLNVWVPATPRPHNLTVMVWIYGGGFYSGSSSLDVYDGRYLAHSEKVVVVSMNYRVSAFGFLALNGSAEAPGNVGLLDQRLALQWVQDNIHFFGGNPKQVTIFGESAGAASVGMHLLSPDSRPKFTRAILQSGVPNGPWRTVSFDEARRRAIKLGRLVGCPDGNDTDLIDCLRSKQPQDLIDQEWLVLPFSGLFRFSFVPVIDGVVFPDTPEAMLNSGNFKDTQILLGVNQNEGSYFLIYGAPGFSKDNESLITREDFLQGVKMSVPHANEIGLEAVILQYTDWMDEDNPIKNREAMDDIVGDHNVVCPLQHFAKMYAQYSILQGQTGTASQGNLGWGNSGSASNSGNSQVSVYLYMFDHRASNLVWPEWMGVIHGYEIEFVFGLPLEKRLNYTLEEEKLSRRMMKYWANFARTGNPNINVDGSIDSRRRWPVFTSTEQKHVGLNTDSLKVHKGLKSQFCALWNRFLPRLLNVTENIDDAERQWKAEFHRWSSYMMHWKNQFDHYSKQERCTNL
T2 sequence (P81908 whole entry): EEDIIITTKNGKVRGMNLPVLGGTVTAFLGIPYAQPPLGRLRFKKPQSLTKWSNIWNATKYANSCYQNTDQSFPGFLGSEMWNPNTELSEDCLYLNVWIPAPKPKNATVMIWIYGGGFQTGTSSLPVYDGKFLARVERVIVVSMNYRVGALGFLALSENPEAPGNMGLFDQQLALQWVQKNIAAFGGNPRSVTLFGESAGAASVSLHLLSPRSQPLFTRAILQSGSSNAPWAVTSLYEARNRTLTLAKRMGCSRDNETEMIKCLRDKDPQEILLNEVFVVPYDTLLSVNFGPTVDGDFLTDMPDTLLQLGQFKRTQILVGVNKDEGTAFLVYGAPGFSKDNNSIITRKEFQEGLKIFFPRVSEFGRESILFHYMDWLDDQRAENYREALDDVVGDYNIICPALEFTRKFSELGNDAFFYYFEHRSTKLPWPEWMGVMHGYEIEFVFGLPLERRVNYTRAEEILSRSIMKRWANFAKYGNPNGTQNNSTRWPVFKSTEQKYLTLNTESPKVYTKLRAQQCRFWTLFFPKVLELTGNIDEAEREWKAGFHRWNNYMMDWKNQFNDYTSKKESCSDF

What is called IC50 is the concentration needed to halve the response being measured. Higher therefore signals weaker potency. `C=C(C)[C@@H]1CCC(C)=C[C@H]1c1c(O)cc(CCCCC)cc1O` [CBD, Cannabidiol]: the IC50 in assay [1] is 1040 ± 20 µM; in assay [2], 1880 ± 110 µM; in assay [3], over 2000 µM; in assay [4], 940 ± 10 µM. In addition, the “effect on K+ 60 mM-induced reduction in Stx 1b level” value in assay [5] is given as “blocking the downregulation”. In addition, the “effect on K+ 60 mM-induced reduction in CAMK2A level” value in assay [6] is “blocking the downregulation”.
Turning to `CCCCCc1cc(O)c(C/C=C(\C)CCC=C(C)C)c(O)c1` [CBG, cannabigerol], the IC50 in assay [1] was 1150 ± 30 µM; in assay [2] it was 1480 ± 110 µM; in assay [3], over 2000 µM; in assay [4] it was 590 ± 10 µM. In addition, the “effect on K+ 60 mM-induced reduction in Stx 1b level” value in assay [5] is “completely ineffective”. For the same molecule, the “effect on K+ 60 mM-induced reduction in CAMK2A level” value in assay [6] is reported as “completely ineffective”.

Source of the values: PMC7279038, “Antioxidant and Neuroprotective Effects Induced by Cannabidiol and Cannabigerol in Rat CTX-TNA2 Astrocytes and Isolated Cortexes” (International Journal of Molecular Sciences, 2020).
